Test results taken from patent US8828988B2 (Tetraphase Pharmaceuticals, Inc., priority 2009, dated 2014).
Converted amounts (≈) assume the structure as drawn. Where two headings read alike, the source gives them in different places.

How the values were obtained:
Assay type in all cases: cell-based
[1] = system: Escherichia coli EC155, tetracycline-resistant, tet(A); assay: MIC assay, EC155
[2] = system: Streptococcus pneumoniae SP160, tetracycline-resistant, tet(M); assay: MIC assay, SP160
[3] = system: Klebsiella pneumoniae KP153, tetracycline-resistant, tet(A), MDR, ESBL+; assay: MIC assay, KP153; details: Table 9, read-out: MIC Klebsiella pneum KP153 (tet)A
[4] = system: Enterobacter cloacae EC108, ATCC 13047; assay: MIC assay, EC108; details: ATCC13047, Table 9, read-out: MIC Enterobacter cloaceae ATCC 13047
[5] = system: E. faecalis clinical isolates; assay: MIC50, MIC90 and MIC range, panel of clinical isolates (Example 20); details: 24 isolates, in µg/mL
Method: (§1) The assays were run as follows.
(§2) Both values, as well as the MIC range (the lowest and highest MIC value observed for a collection of organisms), were determined for the isolates listed in Table 3.

[6] = system: S. aureus clinical isolates; assay: as above; details: MRSA, 30 isolates; in µg/mL
Method: as §1, §2

[7] = system: S. pneumoniae clinical isolates; assay: as above; details: 19 isolates, in µg/mL
Method: as §1, §2

## CN(C)CC(C)(C)CNc1nc(Cl)c2c(c1O)C(=O)C1=C(O)[C@]3(O)C(=O)C(C(N)=O)=C(O)[C@@H](N(C)C)[C@@H]3C[C@@H]1C2 [Compound 151]
[1]; Table 8, read-out: MIC E. coli tetA
  MIC: 8 µg/mL (≈ 13.8 µM)
[1]; Table 9, read-out: MIC E. coli EC155 (tet)A
  MIC: 8 µg/mL (≈ 13.8 µM)
[2]; Table 8, read-out: MIC S. pneumoniae tetM
  MIC: 0.5 µg/mL (≈ 0.865 µM)
[2]; Table 9, read-out: MIC S. pneum SP160 (tet)M
  MIC: 0.125 µg/mL (≈ 0.216 µM)
[3]
  MIC: 8 µg/mL (≈ 13.8 µM)
[4]
  MIC: 2 µg/mL (≈ 3.46 µM)
[5]
  MIC Range: 0.031-4
[6]
  MIC Range: 0.5-8
[7]
  MIC Range: <=0.016-0.25
